# According to US12377110B2, “Fospropofol methods and compositions” (Epalex Corporation, priority 2019, dated 2025):
# Tested on: moderate to severe migraine headache
# Assay: Study A17: clinical course (headache pain, most bothersome symptom, associated migraine symptoms)
# Type: in vivo, human
# Conditions: 800 mg oral
# Procedure: The study is planned to complete approximately 85 subjects. • Enrolled subjects will be asked to come to the study site for treatment when they experience a qualifying migraine headache. Dosing must occur within 4 hours after onset of the migraine symptoms. If treatment at the study site is not feasible or practicable within 4 hours after onset of migraine symptoms, subjects should use their usual medication for that headache and attempt to visit the clinic for treatment as soon as possible (within 4 hours) after onset of their next migraine headache. Dosing must occur within 60 days after enrollment (see Post-enrollment Period below). • At clinic check-in for treatment, study personnel will verify eligibility for closing regarding the criteria for a qualifying headache and adherence to post-enrollment study restrictions (see Eligibility for Dosing below). • Treatment will consist of a single oral dose of fospropofol disodium. […] Because the prevalence of migraine headaches is higher in women than in men, efforts will be made to enroll at least 50% women. • Subjects must meet the general inclusion and exclusion criteria listed below (Inclusion Criteria and Exclusion Criteria) at screening to be enrolled in the study. To be eligible for fospropofol disodium treatment after onset of a migraine headache, enrolled subjects must meet criteria specific to the presenting headache at clinic check-in (see Qualifying Headache below) and adhere to study restrictions specific to the period between enrollment and clinic check-in (see Post-enrollment Restrictions below). • Inclusion Criteria Subjects must meet all of the following criteria at screening to be enrolled in the study: • 1. Written informed consent approved by the Institutional Review Board (IRB) given before any study-related procedures are performed • 2. […] Complete abstinence alone can be used as a method of contraception. • 6. […] Able to comprehend the nature of the study, capable of giving written informed consent, and able to communicate effectively with clinic staff (as assessed by the investigator) • 8. Available to volunteer for the entire study duration and willing to adhere to all protocol requirements, including the post-enrollment restrictions (see Post-enrollment Restrictions below) • 9. Agrees not to post any information related to the study on any website or social media site (e.g., Facebook, Twitter, LinkedIn, Google+, etc.) until the entire trial has been completed • 10. Willing to forgo rescue medicine for at least 2 hours after initiation of treatment with study drug (see In-Clinic Rescue Medicine) • Exclusion Criteria Subjects to whom any of the following criteria apply at screening will be excluded: • 1. History of hemiplegic migraine (at any time in the past). • 2. History of headaches of any type occurring on ≥15 days/month during any of the 3 months prior to screening. • 3.
# [1] = 1 hr postdose, No rescue, N = 18
# [2] = 2 h postdose, No rescue, N = 18
# [3] = 4 h postdose, No rescue, N = 18
# [4] = 24 h postdose (D2), No rescue, N = 18
# [5] = 24 h postdose (D2), Total, N = 18
# [6] = 48 h postdose (D3), Rescue, N = 18
# [7] = 48 h postdose (D3), Total, N = 18
structure (smiles),measurement,setting,value
CC(C)c1cccc(C(C)C)c1OCOP(=O)([O-])O.[Na+] [fospropofol disodium],"Sustained MBS-free response: No, %","2-24 hours postdose, N = 18",(44.4) %
same,"Sustained MBS-free response: Yes, %","2-24 hours postdose, N = 18",(55.6) %
same,"Sustained headache pain freedom: No, %","2-24 hours postdose, N = 18",(77.8) %
same,"Sustained headache pain freedom: Yes, %","2-24 hours postdose, N = 18",(22.2) %
same,"Sustained headache pain relief: No, %","2-24 hours postdose, N = 18",(33.3) %
same,"Sustained headache pain relief: Yes, %","2-24 hours postdose, N = 18",(66.7) %
same,"Sustained MBS-free response: No, %","2-48 hours postdose, N = 18",(50) %
same,"Sustained MBS-free response: Yes, %","2-48 hours postdose, N = 18",(50) %
same,"Sustained headache pain freedom: No, %","2-48 hours postdose, N = 18",(83.3) %
same,"Sustained headache pain freedom: Yes, %","2-48 hours postdose, N = 18",(16.7) %
same,"Sustained headache pain relief: No, %","2-48 hours postdose, N = 18",(38.9) %
same,"Sustained headache pain relief: Yes, %","2-48 hours postdose, N = 18",(61.1) %
same,"Most Bothersome Symptom: MBS free, %",[1],(38.9) %
same,"Most Bothersome Symptom: MBS present, %",[1],(61.1) %
same,"Severity of headache pain: Mild pain, %",[1],(50.0) %
same,"Severity of headache pain: Moderate pain, %",[1],(33.3) %
same,"Severity of headache pain: Pain free, %",[1],(5.6) %
same,"Severity of headache pain: Severe pain, %",[1],(11.1) %
same,"Most Bothersome Symptom: MBS free, %","1 hr postdose, Total, N = 18",(38.9) %
same,"Most Bothersome Symptom: MBS present, %","1 hr postdose, Total, N = 18",(61.1) %
same,"Severity of headache pain: Mild pain, %","1 hr postdose, Total, N = 18",(50.0) %
same,"Severity of headache pain: Moderate pain, %","1 hr postdose, Total, N = 18",(33.3) %
same,"Severity of headache pain: Pain free, %","1 hr postdose, Total, N = 18",(5.6) %
same,"Severity of headache pain: Severe pain, %","1 hr postdose, Total, N = 18",(11.1) %
same,Headache Pain level 1 hr,"1 hr postdose, individual migraine subjects (N = 12)",Severe and Mild and None and Moderate
same,"Most Bothersome Symptom: MBS free, %",[2],(66.7) %
same,"Severity of headache pain: Mild pain, %",[2],(61.1) %
same,"Severity of headache pain: Moderate pain, %",[2],(16.7) %
same,"Severity of headache pain: Pain free, %",[2],(22.2) %
same,"Most Bothersome Symptom: MBS free, %","2 h postdose, Total, N = 18",(66.7) %
same,"Most Bothersome Symptom: MBS present, %","2 h postdose, Total, N = 18",(33.3) %
same,"Severity of headache pain: Mild pain, %","2 h postdose, Total, N = 18",(61.1) %
same,"Severity of headache pain: Moderate pain, %","2 h postdose, Total, N = 18",(16.7) %
same,"Severity of headache pain: Pain free, %","2 h postdose, Total, N = 18",(22.2) %
same,Headache Pain level 2 hr,"2 hr postdose, individual migraine subjects (N = 12)",Moderate and None and Mild
same,"Most Bothersome Symptom: MBS free, %",[3],(77.8) %
same,"Severity of headache pain: Mild pain, %",[3],(22.2) %
same,"Severity of headache pain: Moderate pain, %",[3],(5.6) %
same,"Severity of headache pain: Pain free, %",[3],(55.6) %
same,"Most Bothersome Symptom: MBS free, %","4 h postdose, Rescue, N = 18",(11.1) %
same,"Most Bothersome Symptom: MBS present, %","4 h postdose, Rescue, N = 18",(11.1) %
same,"Severity of headache pain: Mild pain, %","4 h postdose, Rescue, N = 18",(5.6) %
same,"Severity of headache pain: Pain free, %","4 h postdose, Rescue, N = 18",(11.1) %
same,"Most Bothersome Symptom: MBS free, %","4 h postdose, Total, N = 18",(88.9) %
same,"Most Bothersome Symptom: MBS present, %","4 h postdose, Total, N = 18",(11.1) %
same,"Severity of headache pain: Mild pain, %","4 h postdose, Total, N = 18",(27.8) %
same,"Severity of headache pain: Moderate pain, %","4 h postdose, Total, N = 18",(5.6) %
same,"Severity of headache pain: Pain free, %","4 h postdose, Total, N = 18",(66.7) %
same,Headache Pain level 4 hr,"4 hr postdose, individual migraine subjects (N = 12)",Moderate and None and Mild and Mild [b]
same,"Severity of headache pain: Mild pain, %",[4],(16.7) %
same,"Severity of headache pain: Moderate pain, %",[4],(11.1) %
same,"Severity of headache pain: Pain free, %",[4],(72.2) %
same,"Severity of headache pain: Moderate pain, %","24 h postdose (D2), Rescue, N = 18",(11.1) %
same,"Severity of headache pain: Mild pain, %",[5],(16.7) %
same,"Severity of headache pain: Moderate pain, %",[5],(22.2) %
same,"Severity of headache pain: Pain free, %",[5],(72.2) %
same,"Most Bothersome Symptom: MBS free, %","24 h postdose (Day 2), No rescue, N = 18",(72.2) %
same,"Most Bothersome Symptom: MBS free, %","24 h postdose (Day 2), Rescue, N = 18",(11.1) %
same,"Most Bothersome Symptom: MBS free, %","24 h postdose (Day 2), Total, N = 18",(83.3) %
same,"Severity of headache pain: Pain free, %","48 h postdose (D3), No rescue, N = 18",(83.3) %
same,"Severity of headache pain: Mild pain, %",[6],(11.1) %
same,"Severity of headache pain: Moderate pain, %",[6],(22.2) %
same,"Severity of headache pain: Mild pain, %",[7],(11.1) %
same,"Severity of headache pain: Moderate pain, %",[7],(22.2) %
same,"Severity of headache pain: Pain free, %",[7],(83.3) %
same,"Most Bothersome Symptom: MBS free, %","48 h postdose (Day 3), No rescue, N = 18",(66.7) %
same,"Most Bothersome Symptom: MBS free, %","48 h postdose (Day 3), Rescue, N = 18",(11.1) %
same,"Most Bothersome Symptom: MBS free, %","48 h postdose (Day 3), Total, N = 18",(77.8) %
same,"Most Bothersome Symptom: MBS free, %","Discharge, No rescue, N = 18",(72.2) %
same,"Severity of headache pain: Mild pain, %","Discharge, No rescue, N = 18",(11.1) %
same,"Severity of headache pain: Pain free, %","Discharge, No rescue, N = 18",(66.7) %
same,"Most Bothersome Symptom: MBS free, %","Discharge, Rescue, N = 18",(16.7) %
same,"Severity of headache pain: Mild pain, %","Discharge, Rescue, N = 18",(5-6) %
same,"Severity of headache pain: Pain free, %","Discharge, Rescue, N = 18",(11.1) %
same,"Most Bothersome Symptom: MBS free, %","Discharge, Total, N = 18",(88.9) %
same,"Severity of headache pain: Mild pain, %","Discharge, Total, N = 18",(16.7) %
same,"Severity of headache pain: Pain free, %","Discharge, Total, N = 18",(77.8) %
same,"Freedom from MBS at 2 hours: No, %",N = 18,(33.3) %
same,"Freedom from MBS at 2 hours: Yes, %",N = 18,(66.7) %
same,"Freedom from both migraine headache pain and MBS at 2 hours: No, %",N = 18,(77.8) %
same,"Freedom from both migraine headache pain and MBS at 2 hours: Yes, %",N = 18,(22.2) %
same,"Freedom from migraine headache pain at 2 hours: No, %",N = 18,(77.8) %
same,"Freedom from migraine headache pain at 2 hours: Yes, %",N = 18,(22.2) %
same,MBS (Y/N) 1 hr,"most bothersome symptom present, 1 hr postdose, individual migraine subjects (N = 12)",Yes and No
same,MBS (Y/N) 2 hr,"most bothersome symptom present, 2 hr postdose, individual migraine subjects (N = 12)",No and Yes
same,MBS (Y/N) 4 hr,"most bothersome symptom present, 4 hr postdose, individual migraine subjects (N = 12)",No and Yes and Yes [b]
